Experimental data taken from PubChem BioAssay AID2060505 (Molecular Pharmacology Branch, DTP, NCI, 2025).
pIC50: −log10 of the molar value.

System: 633275-114-R-J1-PDC complex spheroids, viability
Experiment: Anticancer human tumor 633275-114-R-J1-PDC patient-derived endometrial adenocarcinoma cell line growth inhibition [GQUAD]
Settings: for pIC50: curve of first compound; for viability, T/C: stronger effect = lower value
Excerpt: DNA G-quadruplex Stabilizer Agents in Combinations in Complex Spheroids
A high-throughput screen of multi-cell type tumor spheroids was designed to identify active combinations of DNA G-quadruplex stabilizer agents and targeted small molecules. Complex spheroids include a stromal component modeled by human endothelial cells (HUVEC) and fibroblasts modeled by human mesenchymal stem cells (MSCs). The concentration ranges selected for each drug and investigational agent were based upon clinically achievable concentrations if the clinical Cmax of the agent was known.
Compounds. The drugs and investigational agents: pidnarulex (CX-5461; NSC782164), APTO-253 (NSC789042), BRACO-19 (NSC847499), peposertib (NSC802822), ceralasertib (NSC780249), elimusertib (NSC800525), camonsertib (NSC841442), AZD-1390 (NSC803789), olaparib (NSC753686), talazoparib (NSC767125), ART-558 (NSC835418), sotorasib (NSC818433), MRTX-1133 (NSC836407), SN-38 (NSC673596), topotecan (NSC609699), etoposide (NSC141540), doxorubicin (NSC123127), gemcitabine (NSC613327), 5-fluorouracil (NSC19893), paclitaxel (NSC125973), vemurafenib (NSC761431), panobinostat (NSC761190), R-306465 (JNJ-16241199; NSC773264), adavosertib (NSC754352), TP-3654 (NSC805149), carboplatin (NSC241240), KSQ-4279 (NSC840948), and staurosporine (NSC755774) were obtained from the National Cancer Institute (NCI) Developmental Therapeutics Program Chemical Repository (34). The FDA-approved anticancer drug set is available from the NCI Developmental Therapeutics Program. […] The stock solutions were prepared in dimethyl sulfoxide (DMSO, Sigma-Aldrich, St. Louis, MO, cat. D2650) at 800-fold the tested concentration and stored at -70 degrees C prior to their use. All drugs and investigational agents were tested over a range starting from a high concentration at or near the clinical Cmax and decreasing in half-log increments. If the clinical Cmax for an agent had not been determined, the highest concentration tested was 10 microM.
2.3 Cell Culture. All cells were maintained in an incubator at 37 degrees C and 5% CO2 with 95% humidity. The PDC lines were cultured according to standard operating procedures established by the NCI PDMR. All PDCs were thawed and cultured in Matrigel-coated flasks prepared with a working solution of 1X Ham's F-12 nutrient mix, without supplementation (Invitrogen, cat. 11765054), 100 U/mL penicillin-streptomycin (Invitrogen, cat. 15140122), and 2.5% Matrigel (Corning Inc., cat. 354248) for the first three passages. The 857933-349-R-J2-PDC line was cultured in 6C/Colon 1B media, which includes advanced DMEM/F-12 (Thermo Fisher Scientific, cat. 12634028), 10 mM HEPES (Thermo Fisher Scientific, cat. 15630080), 1X GlutaMAX supplement (Thermo Fisher Scientific, cat. 35050061), 0.1 mg/mL primocin (InvivoGen, cat. ant-pm-2), 10% defined fetal bovine serum, heat inactivated (HyClone Laboratories Inc., cat. SH30070.03HI), 50% L-WRN conditioned media (ATCC, cat. CRL-3276), 1.25 mM N-Acetyl-L-cysteine (Sigma-Aldrich, cat. A9165), 10 mM nicotinamide (Sigma-Aldrich, cat. N0636), 1X B-27 supplement (Thermo Fisher Scientific, cat. 17504044), 1X N-2 supplement (Thermo Fisher Scientific, cat. 17502048), 10 microM Y-27632 dihydrochloride (Tocris Bioscience, cat. 1254), and 50 ng/mL human EGF recombinant protein (Thermo Fisher Scientific, cat. PHG0311). The 485176-168-R4-J1-PDC line was cultured in Panc media, which includes all 6C/Colon 1B media components plus 100 ng/mL human FGF-10 (Thermo Fisher Scientific, cat. 100-26), 500 nM SB-431542 (Selleckchem, cat. S1067), and gastrin (Tocris, cat. 3006).
[…]

[1] = second compound 0.0316 µM, first compound 0.0316 µM
[2] = second compound 0.0316 µM, first compound 0.1 µM
[3] = second compound 0.0316 µM, first compound 0.316 µM
[4] = second compound 0.0316 µM, first compound 1 µM
[5] = second compound 0.0316 µM, first compound 3.16 µM
[6] = second compound 0.0316 µM, first compound 10 µM
[7] = second compound 0.1 µM, first compound 0.0316 µM
[8] = second compound 0.1 µM, first compound 0.1 µM
[9] = second compound 0.1 µM, first compound 0.316 µM
[10] = second compound 0.1 µM, first compound 1 µM
[11] = second compound 0.1 µM, first compound 3.16 µM
[12] = second compound 0.1 µM, first compound 10 µM
[13] = second compound 0.316 µM, first compound 0.0316 µM
[14] = second compound 0.316 µM, first compound 0.1 µM
[15] = second compound 0.316 µM, first compound 0.316 µM
[16] = second compound 0.316 µM, first compound 1 µM
[17] = second compound 0.316 µM, first compound 3.16 µM
[18] = second compound 0.316 µM, first compound 10 µM
[19] = second compound 1 µM, first compound 0.0316 µM
[20] = second compound 1 µM, first compound 0.1 µM
[21] = second compound 1 µM, first compound 0.316 µM
[22] = second compound 1 µM, first compound 1 µM
[23] = second compound 1 µM, first compound 3.16 µM
[24] = second compound 1 µM, first compound 10 µM
[25] = second compound 3.16 µM, first compound 0.0316 µM
[26] = second compound 3.16 µM, first compound 0.1 µM
[27] = second compound 3.16 µM, first compound 0.316 µM
[28] = second compound 3.16 µM, first compound 1 µM
[29] = second compound 3.16 µM, first compound 3.16 µM
[30] = second compound 3.16 µM, first compound 10 µM
[31] = second compound 10 µM, first compound 0.0316 µM
[32] = second compound 10 µM, first compound 0.1 µM
[33] = second compound 10 µM, first compound 0.316 µM
[34] = second compound 10 µM, first compound 1 µM
[35] = second compound 10 µM, first compound 3.16 µM
[36] = second compound 10 µM, first compound 10 µM
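Also: spheroids exposed to the agents for seven days.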
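For viability, T/C in this document: percent of DMSO vehicle control viability which is 100%.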

## Cc1cccc(N(C)C(=O)C2C(O)CCN2c2nc(C)cc(C(F)(F)F)c2C#N)c1 (centres undefined) + CN(C)c1ccc(Nc2c3ccc(NC(=O)CCN4CCCC4)cc3nc3cc(NC(=O)CCN4CCCC4)ccc23)cc1
Second compound 0.0316 µM
  pIC50: < 5.00
Second compound 0.1 µM
  pIC50: < 5.00
Second compound 0.316 µM
  pIC50: < 5.00
Second compound 1 µM
  pIC50: < 5.00
Second compound 3.16 µM
  pIC50: 5.07
Second compound 10 µM
  pIC50: > 7.50
[1]
  viability, T/C: 102%
[2]
  viability, T/C: 99.2%
[3]
  viability, T/C: 105%
[4]
  viability, T/C: 105%
[5]
  viability, T/C: 96.3%
[6]
  viability, T/C: 104%
[7]
  viability, T/C: 107%
[8]
  viability, T/C: 103%
[9]
  viability, T/C: 104%
[10]
  viability, T/C: 99.5%
[11]
  viability, T/C: 101%
[12]
  viability, T/C: 97.8%
[13]
  viability, T/C: 99.3%
[14]
  viability, T/C: 94.4%
[15]
  viability, T/C: 101%
[16]
  viability, T/C: 91%
[17]
  viability, T/C: 94%
[18]
  viability, T/C: 85.3%
[19]
  viability, T/C: 96.2%
[20]
  viability, T/C: 96.6%
[21]
  viability, T/C: 97.6%
[22]
  viability, T/C: 99.5%
[23]
  viability, T/C: 94.6%
[24]
  viability, T/C: 87.1%
[25]
  viability, T/C: 88.8%
[26]
  viability, T/C: 84.8%
[27]
  viability, T/C: 95.5%
[28]
  viability, T/C: 82.4%
[29]
  viability, T/C: 69.2%
[30]
  viability, T/C: 47%
[31]
  viability, T/C: 30.5%
[32]
  viability, T/C: 34.7%
[33]
  viability, T/C: 28%
[34]
  viability, T/C: 29.6%
[35]
  viability, T/C: 28.2%
[36]
  viability, T/C: 16.1%

## Nc1ccn(C2OC(CO)C(O)C2(F)F)c(=O)n1 (centres undefined) + CN(C)c1ccc(Nc2c3ccc(NC(=O)CCN4CCCC4)cc3nc3cc(NC(=O)CCN4CCCC4)ccc23)cc1
Second compound 0.0316 µM
  pIC50: > 7.50
Second compound 0.1 µM
  pIC50: > 7.50
Second compound 0.316 µM
  pIC50: > 7.50
Second compound 1 µM
  pIC50: > 7.50
Second compound 3.16 µM
  pIC50: > 7.50
Second compound 10 µM
  pIC50: > 7.50
[1]
  viability, T/C: 27.4%
[2]
  viability, T/C: 20.1%
[3]
  viability, T/C: 23.8%
[4]
  viability, T/C: 23.6%
[5]
  viability, T/C: 20.7%
[6]
  viability, T/C: 20.5%
[7]
  viability, T/C: 27.1%
[8]
  viability, T/C: 20.7%
[9]
  viability, T/C: 24%
[10]
  viability, T/C: 22.4%
[11]
  viability, T/C: 21.5%
[12]
  viability, T/C: 19.3%
[13]
  viability, T/C: 29.6%
[14]
  viability, T/C: 21%
[15]
  viability, T/C: 25.6%
[16]
  viability, T/C: 22.9%
[17]
  viability, T/C: 19.7%
[18]
  viability, T/C: 17.7%
[19]
  viability, T/C: 27.7%
[20]
  viability, T/C: 20.1%
[21]
  viability, T/C: 22%
[22]
  viability, T/C: 21.1%
[23]
  viability, T/C: 22.4%
[24]
  viability, T/C: 19.6%
[25]
  viability, T/C: 24.6%
[26]
  viability, T/C: 20.6%
[27]
  viability, T/C: 19.3%
[28]
  viability, T/C: 18.6%
[29]
  viability, T/C: 20.6%
[30]
  viability, T/C: 18.6%
[31]
  viability, T/C: 12.9%
[32]
  viability, T/C: 11.6%
[33]
  viability, T/C: 11.7%
[34]
  viability, T/C: 11.7%
[35]
  viability, T/C: 11%
[36]
  viability, T/C: 9%
